# Results from publication PMC5762315, “Inhibition of polo-like kinase 4 (PLK4): a new therapeutic option for rhabdoid tumors and pediatric medulloblastoma” (Oncotarget, 2017).
# Several values for one entry are separate records, joined by “and”; a condition that tells them apart may be missing. Equal entries are not always repeated.
# Columns and labels:
# Assay in all cases: biochemical
# Type in all cases: biochemical
# various kinases [1] = biological target: various kinases (Homo sapiens, UniProt P31751); details: AKT2 (PKB beta)
# various kinases [2] = biological target: various kinases (Homo sapiens, UniProt P16234, D842V); details: PDGFRA D842V
# various kinases [3] = biological target: various kinases (Homo sapiens, UniProt Q9H3Y6); details: kinase SRMS (Srm); ZLYTE
# various kinases [4] = biological target: various kinases (Homo sapiens, UniProt P10721, V560G); details: KIT V560G
# various kinases [5] = biological target: T1, various kinases (Homo sapiens, UniProt Q13237); details: kinase PRKG2 (PKG2); ZLYTE
# T1 sequence (Q13237 1-762): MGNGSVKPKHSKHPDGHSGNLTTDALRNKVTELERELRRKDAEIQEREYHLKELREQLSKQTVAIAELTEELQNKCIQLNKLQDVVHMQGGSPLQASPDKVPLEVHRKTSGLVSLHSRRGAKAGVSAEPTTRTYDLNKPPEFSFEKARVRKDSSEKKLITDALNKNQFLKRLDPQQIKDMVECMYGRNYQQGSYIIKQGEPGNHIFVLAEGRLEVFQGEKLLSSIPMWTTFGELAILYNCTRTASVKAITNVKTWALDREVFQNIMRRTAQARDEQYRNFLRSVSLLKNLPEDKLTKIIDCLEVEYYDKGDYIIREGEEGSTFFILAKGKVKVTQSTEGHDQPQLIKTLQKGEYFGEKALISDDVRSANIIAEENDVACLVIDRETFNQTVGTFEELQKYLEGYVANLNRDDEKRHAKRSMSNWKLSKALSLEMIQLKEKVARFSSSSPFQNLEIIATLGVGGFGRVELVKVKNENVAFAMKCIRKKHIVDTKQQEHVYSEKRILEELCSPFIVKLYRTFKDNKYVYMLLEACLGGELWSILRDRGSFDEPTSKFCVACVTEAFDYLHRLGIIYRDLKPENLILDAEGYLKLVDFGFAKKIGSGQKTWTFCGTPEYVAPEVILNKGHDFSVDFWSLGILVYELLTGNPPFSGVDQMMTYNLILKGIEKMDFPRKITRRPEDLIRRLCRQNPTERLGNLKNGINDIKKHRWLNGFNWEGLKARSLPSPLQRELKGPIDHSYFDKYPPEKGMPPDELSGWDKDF
# various kinases [6] = biological target: various kinases (Homo sapiens, UniProt P07949, S891A); details: kinase RET S891A; ZLYTE
# various kinases [7] = biological target: T2, various kinases (Homo sapiens, UniProt Q9BZL6); details: kinase PRKD2 (PKD2); ZLYTE
# T2 sequence (Q9BZL6 1-878): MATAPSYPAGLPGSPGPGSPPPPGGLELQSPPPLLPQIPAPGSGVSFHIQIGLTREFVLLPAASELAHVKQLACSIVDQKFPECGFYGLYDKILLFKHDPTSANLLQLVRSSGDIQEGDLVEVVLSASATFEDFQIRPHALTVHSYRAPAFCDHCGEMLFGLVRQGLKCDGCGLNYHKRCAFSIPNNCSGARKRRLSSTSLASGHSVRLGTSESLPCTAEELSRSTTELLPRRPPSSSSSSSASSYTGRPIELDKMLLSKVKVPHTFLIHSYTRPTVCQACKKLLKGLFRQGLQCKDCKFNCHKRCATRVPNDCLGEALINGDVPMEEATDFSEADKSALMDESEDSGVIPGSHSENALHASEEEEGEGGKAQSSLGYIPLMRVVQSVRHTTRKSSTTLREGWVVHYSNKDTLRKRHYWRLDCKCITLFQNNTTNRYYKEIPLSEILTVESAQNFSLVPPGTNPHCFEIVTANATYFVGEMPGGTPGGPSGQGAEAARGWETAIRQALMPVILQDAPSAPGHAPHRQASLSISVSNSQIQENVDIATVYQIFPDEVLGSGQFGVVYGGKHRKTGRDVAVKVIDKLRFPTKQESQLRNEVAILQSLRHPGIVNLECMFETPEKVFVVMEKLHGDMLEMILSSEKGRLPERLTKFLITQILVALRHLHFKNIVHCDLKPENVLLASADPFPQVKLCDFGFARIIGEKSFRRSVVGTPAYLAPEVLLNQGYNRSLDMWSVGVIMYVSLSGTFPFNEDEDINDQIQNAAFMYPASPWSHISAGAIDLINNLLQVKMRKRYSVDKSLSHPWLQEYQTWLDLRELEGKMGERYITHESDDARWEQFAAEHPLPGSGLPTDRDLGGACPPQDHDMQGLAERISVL
# various kinases [8] = biological target: various kinases (Homo sapiens, UniProt O43293); details: DAPK3 (ZIPK)
# various kinases [9] = biological target: various kinases (Homo sapiens, UniProt Q96SB4); details: kinase SRPK1; ZLYTE
# various kinases [10] = biological target: various kinases (Homo sapiens, UniProt P80192); details: MAP3K9 (MLK1)
# various kinases [11] = biological target: various kinases (Homo sapiens, UniProt P00533, L861Q); details: EGFR (ErbB1) L861Q
# various kinases [12] = biological target: various kinases (Homo sapiens, UniProt P49137); details: MAPKAPK2
# various kinases [13] = biological target: various kinases (Homo sapiens, UniProt P00533, L858R/T790M); details: EGFR (ErbB1) T790M L858R
# various kinases [14] = biological target: various kinases (Homo sapiens, UniProt P35968); details: KDR (VEGFR2)
# various kinases [15] = biological target: various kinases (Homo sapiens, UniProt O96013); details: PAK4
# various kinases [16] = biological target: various kinases (Homo sapiens, UniProt Q9NYY3); details: kinase PLK2; ZLYTE
# various kinases [17] = biological target: various kinases (Homo sapiens, UniProt Q9P1W9); details: PIM2
# Wherever % Inhibition Average is given: test concentration or dose not given here.
# Wherever % Inhibition Duplicate #1 is given: test concentration or dose not given here.
# Wherever % Inhibition Duplicate #2 is given: test concentration or dose not given here.
# Sequence of various kinases (Homo sapiens, UniProt Q96SB4) (Q96SB4 whole entry): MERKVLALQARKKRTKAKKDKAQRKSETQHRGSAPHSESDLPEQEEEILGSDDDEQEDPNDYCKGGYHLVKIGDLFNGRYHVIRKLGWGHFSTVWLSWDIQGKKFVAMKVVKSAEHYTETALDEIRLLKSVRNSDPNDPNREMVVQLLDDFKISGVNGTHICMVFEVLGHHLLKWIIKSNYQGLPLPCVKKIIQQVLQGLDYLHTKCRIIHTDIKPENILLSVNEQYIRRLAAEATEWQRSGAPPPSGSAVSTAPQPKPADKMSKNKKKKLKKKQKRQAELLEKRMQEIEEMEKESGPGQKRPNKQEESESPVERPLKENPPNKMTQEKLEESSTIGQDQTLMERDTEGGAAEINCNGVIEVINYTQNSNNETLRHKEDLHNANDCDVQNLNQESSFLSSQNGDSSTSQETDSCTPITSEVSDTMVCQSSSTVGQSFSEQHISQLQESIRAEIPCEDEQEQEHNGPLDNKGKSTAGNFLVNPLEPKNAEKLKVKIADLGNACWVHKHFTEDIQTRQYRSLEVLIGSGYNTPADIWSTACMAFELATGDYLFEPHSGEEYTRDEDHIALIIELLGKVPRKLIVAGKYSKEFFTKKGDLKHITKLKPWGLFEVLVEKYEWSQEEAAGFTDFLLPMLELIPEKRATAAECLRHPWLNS
# Sequence of various kinases (Homo sapiens, UniProt Q9NYY3) (Q9NYY3 whole entry): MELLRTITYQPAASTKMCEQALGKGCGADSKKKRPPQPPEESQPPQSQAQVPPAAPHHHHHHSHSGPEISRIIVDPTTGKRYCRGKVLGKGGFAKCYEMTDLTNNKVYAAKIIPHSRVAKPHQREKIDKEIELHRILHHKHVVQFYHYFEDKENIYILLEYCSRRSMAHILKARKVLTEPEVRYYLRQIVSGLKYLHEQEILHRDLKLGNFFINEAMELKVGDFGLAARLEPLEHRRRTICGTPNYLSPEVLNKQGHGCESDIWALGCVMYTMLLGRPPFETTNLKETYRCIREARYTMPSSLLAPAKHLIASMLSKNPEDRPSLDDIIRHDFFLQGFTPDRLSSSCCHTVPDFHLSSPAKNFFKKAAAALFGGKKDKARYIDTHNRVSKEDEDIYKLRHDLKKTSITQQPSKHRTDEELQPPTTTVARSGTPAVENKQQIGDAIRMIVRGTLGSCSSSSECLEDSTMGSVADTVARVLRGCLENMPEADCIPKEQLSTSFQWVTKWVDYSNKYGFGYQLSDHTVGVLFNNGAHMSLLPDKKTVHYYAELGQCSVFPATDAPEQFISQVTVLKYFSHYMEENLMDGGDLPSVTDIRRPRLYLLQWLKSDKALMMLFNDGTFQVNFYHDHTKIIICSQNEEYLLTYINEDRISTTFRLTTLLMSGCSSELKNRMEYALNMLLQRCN
# Sequence of various kinases (Homo sapiens, UniProt P07949, S891A) (P07949 29-1114 S891A): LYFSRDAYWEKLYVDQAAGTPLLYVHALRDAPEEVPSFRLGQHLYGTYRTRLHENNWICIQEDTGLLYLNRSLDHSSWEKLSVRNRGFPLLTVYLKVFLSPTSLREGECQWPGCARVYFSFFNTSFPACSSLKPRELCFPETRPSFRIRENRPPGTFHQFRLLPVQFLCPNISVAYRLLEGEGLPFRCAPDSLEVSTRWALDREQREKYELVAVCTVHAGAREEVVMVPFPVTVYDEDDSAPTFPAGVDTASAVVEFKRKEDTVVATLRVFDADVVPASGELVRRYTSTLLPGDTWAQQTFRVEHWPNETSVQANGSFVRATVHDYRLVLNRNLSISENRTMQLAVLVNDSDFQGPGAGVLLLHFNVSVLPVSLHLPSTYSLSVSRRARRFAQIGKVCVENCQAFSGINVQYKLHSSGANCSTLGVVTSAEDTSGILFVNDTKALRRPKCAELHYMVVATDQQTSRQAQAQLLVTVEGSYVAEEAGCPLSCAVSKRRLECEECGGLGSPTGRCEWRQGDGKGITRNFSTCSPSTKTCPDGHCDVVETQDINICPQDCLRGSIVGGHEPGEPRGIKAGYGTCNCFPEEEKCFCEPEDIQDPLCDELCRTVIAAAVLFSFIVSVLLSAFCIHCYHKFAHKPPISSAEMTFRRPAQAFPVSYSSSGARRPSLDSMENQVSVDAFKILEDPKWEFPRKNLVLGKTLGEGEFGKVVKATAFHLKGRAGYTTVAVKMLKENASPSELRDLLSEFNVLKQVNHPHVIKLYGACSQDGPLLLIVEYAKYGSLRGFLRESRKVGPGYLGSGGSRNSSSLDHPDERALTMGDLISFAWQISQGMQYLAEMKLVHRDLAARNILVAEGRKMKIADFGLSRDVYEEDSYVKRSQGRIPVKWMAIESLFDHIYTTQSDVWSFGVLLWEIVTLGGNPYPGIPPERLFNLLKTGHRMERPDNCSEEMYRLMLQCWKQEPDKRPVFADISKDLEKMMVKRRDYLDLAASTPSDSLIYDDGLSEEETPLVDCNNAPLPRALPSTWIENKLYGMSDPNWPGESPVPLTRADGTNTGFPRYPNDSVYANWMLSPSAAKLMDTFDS
# Sequence of various kinases (Homo sapiens, UniProt Q9H3Y6) (Q9H3Y6 whole entry): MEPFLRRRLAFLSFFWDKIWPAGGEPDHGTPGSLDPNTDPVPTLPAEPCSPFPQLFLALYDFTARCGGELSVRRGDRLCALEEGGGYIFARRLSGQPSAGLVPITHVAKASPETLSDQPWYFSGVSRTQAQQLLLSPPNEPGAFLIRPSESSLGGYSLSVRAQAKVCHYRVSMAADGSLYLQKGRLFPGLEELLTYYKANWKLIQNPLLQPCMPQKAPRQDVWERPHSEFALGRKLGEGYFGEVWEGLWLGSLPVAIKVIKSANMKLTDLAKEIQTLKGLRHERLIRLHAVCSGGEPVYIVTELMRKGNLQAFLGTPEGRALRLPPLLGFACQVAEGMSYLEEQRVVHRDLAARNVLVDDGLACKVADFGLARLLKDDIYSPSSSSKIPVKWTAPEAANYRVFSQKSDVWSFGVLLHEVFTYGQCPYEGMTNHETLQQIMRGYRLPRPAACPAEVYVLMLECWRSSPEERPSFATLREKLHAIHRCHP
# Sequence of various kinases (Homo sapiens, UniProt O43293) (O43293 whole entry): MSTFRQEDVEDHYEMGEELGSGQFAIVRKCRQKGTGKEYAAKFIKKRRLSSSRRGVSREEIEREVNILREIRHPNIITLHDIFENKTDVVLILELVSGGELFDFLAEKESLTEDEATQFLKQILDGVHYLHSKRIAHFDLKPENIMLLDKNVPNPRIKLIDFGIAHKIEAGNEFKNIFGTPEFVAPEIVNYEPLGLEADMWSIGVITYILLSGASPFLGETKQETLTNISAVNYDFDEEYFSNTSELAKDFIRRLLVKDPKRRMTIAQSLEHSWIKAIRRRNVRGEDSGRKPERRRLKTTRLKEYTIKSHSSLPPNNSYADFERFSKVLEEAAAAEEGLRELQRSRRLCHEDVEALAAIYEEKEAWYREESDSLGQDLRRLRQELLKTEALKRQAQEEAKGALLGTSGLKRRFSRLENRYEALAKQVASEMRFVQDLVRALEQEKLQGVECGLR
# Sequence of various kinases (Homo sapiens, UniProt P80192) (P80192 whole entry): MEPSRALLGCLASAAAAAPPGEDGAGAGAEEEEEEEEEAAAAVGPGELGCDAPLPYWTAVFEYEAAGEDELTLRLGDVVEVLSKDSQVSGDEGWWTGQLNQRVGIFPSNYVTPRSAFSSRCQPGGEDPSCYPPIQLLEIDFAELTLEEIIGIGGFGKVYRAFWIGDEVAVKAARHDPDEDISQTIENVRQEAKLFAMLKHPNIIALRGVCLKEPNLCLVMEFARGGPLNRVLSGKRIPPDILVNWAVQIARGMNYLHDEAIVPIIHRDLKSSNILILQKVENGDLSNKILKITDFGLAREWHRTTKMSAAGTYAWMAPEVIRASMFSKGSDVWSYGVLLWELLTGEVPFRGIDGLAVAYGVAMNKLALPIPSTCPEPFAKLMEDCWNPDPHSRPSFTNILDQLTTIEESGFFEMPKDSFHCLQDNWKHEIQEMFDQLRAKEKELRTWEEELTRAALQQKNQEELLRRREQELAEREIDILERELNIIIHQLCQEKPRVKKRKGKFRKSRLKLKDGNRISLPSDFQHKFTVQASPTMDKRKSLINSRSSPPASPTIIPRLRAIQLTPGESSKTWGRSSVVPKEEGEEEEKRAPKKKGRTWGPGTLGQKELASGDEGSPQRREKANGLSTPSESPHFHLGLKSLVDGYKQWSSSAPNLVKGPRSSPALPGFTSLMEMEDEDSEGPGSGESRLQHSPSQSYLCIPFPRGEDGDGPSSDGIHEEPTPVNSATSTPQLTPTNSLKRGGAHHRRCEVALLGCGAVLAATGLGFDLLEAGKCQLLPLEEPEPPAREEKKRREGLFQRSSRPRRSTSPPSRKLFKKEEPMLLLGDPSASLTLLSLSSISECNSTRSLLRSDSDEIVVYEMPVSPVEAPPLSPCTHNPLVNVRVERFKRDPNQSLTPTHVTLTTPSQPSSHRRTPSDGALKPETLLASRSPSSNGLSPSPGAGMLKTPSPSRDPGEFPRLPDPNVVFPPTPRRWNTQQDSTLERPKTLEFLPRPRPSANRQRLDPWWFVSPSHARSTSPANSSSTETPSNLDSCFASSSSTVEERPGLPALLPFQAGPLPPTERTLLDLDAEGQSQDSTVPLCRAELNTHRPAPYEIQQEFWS
# Sequence of various kinases (Homo sapiens, UniProt P49137) (P49137 whole entry): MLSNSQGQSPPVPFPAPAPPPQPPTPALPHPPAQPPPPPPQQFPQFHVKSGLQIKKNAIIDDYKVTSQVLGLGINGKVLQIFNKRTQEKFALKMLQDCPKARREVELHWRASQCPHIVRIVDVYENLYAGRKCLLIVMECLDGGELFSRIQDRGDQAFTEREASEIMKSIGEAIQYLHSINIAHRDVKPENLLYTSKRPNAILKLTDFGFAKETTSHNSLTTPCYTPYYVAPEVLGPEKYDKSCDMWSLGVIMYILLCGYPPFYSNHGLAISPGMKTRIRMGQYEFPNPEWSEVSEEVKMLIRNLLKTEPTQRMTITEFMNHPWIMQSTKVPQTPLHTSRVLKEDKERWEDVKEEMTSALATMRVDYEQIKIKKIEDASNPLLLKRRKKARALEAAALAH
smiles,measurement,setting,value
COc1ccc2c(c1)[C@]1(C[C@H]1c1ccc3c(/C=C/c4ccc(CN5C[C@@H](C)O[C@@H](C)C5)cc4)n[nH]c3c1)C(=O)N2 [CFI-400945],% Inhibition,various kinases [1],3%
same,% Inhibition,various kinases [2],4% and 10%
same,% Inhibition Average,various kinases [3],11%
same,% Inhibition Duplicate #1,various kinases [3],10%
same,% Inhibition Duplicate #2,various kinases [3],12%
same,% Inhibition,various kinases [4],11% and 7%
same,% Inhibition Average,various kinases [5],1%
same,% Inhibition Duplicate #1,various kinases [5],2%
same,% Inhibition Duplicate #2,various kinases [5],0%
same,% Inhibition Average,various kinases [6],55%
same,% Inhibition Duplicate #1,various kinases [6],59%
same,% Inhibition Duplicate #2,various kinases [6],52%
same,% Inhibition Average,various kinases [7],2%
same,% Inhibition Duplicate #1,various kinases [7],0%
same,% Inhibition Duplicate #2,various kinases [7],4%
same,% Inhibition,various kinases [8],1% and 2%
same,% Inhibition Average,various kinases [9],5%
same,% Inhibition Duplicate #1,various kinases [9],6%
same,% Inhibition Duplicate #2,various kinases [9],3%
same,% Inhibition,various kinases [10],9% and 2%
same,% Inhibition,various kinases [11],3% and 0%
same,% Inhibition,various kinases [12],15% and 12%
same,% Inhibition,various kinases [13],5% and 4%
same,% Inhibition,various kinases [14],16% and 15%
same,% Inhibition,various kinases [15],10% and 9%
same,% Inhibition Average,various kinases [16],4%
same,% Inhibition Duplicate #1,various kinases [16],4%
same,% Inhibition Duplicate #2,various kinases [16],4%
same,% Inhibition,various kinases [17],8% and 9%
